From patent publication US20120183619A1, “TRICLOSAN DERIVATIVES AND NANOPARTICLES COMPRISING SAME” (BAR ILAN UNIVERSITY, priority 2011, published 2012)
Converted amounts (≈) assume the structure as drawn.

Columns and labels:
[1] = system: Escherichia Coli (E. coli) (Gram-negative); experiment: Killing curves / antimicrobial activity on E. coli; format: cell-based
Method: (§1) In order to investigate the antimicrobial activity of the nanoparticles, a series of biological experiments were designed and carried out on two common bacterial pathogens, Escherichia Coli (E. coli) (Gram-negative) and Staphylococcus Aureus (S. aureus) (Gram-positive). Killing curves were determined in triplicate using starting inocula of 10^6 CFU mL^−1. Fresh, overnight growths of bacteria in TSB or TSB-Glu were diluted as necessary to produce the desired starting inocula in 10 mL of medium. T-SNPs and triclosan were tested in concentration ranges from 0 to 50 μg mL^−1 and 0 to 1 μg mL^−1, respectively. Unloaded SNPs were added at the highest tested concentration (50 μg mL^−1). TTESPC was previously dissolved in dimethyl sulfoxide (DMSO) and added to the media at a concentration of 50 μg mL^−1. Samples (100 μL) were removed from each well every 2 h and diluted appropriately in saline. Colony-forming units were determined by spotting 5 μL samples in triplicate on Luria-Bertani agar plates after 24 h incubation at 37° C. To confirm that the antimicrobial properties of the T-SNPs were mediated by the sole release of triclosan, the triclosan-resistant strain of E. coli, RJH108, was exposed to the highest concentration of T-SNPs tested (50 μg mL^−1). The viability was determined by using the same experimental protocol as described above.
(§2) Despite the similar MICs, a difference in the sensitivity of these strains to the T-SNPs treatment was observed. […] Then, the nanoparticles were centrifuged, filtered and the supernatant was incubated separately with E. coli and S. aureus and their growth was monitored. […]
(§3) The MIC of free triclosan that affected the growth of the two types of bacteria was measured (FIGS. 11A-B). […] As calculated from the elemental analysis, the triclosan constituted only […] of the nanoparticles, meaning that the highest concentration of nanoparticles taken for the experiments, 50 μg mL^−1, encompassed only 0.041 μg mL^1 of covalently bound triclosan. […]

[2] = system: Staphylococcus Aureus (S. aureus) (Gram-positive); experiment: Killing curves / antimicrobial activity on S. aureus; format: cell-based
Method: as §1, §2, §3

[3] = cited from earlier work

CCO[Si](CCCNC(=O)Oc1cc(Cl)ccc1Oc1ccc(Cl)cc1Cl)(OCC)OCC [TTESPC, 5-chloro-2-(2,4-dichlorophenoxy)phenyl (3-(triethoxysilyl)propyl)carbamate]
antibacterial activity (control) ([1]; E. coli, 50 μg mL^−1, dissolved in DMSO): no antibacterial activity was observed | antibacterial activity (control) ([2]; S. aureus, 50 μg mL^−1, dissolved in DMSO): no antibacterial activity was observed

Oc1cc(Cl)ccc1Oc1ccc(Cl)cc1Cl [triclosan, 5-chloro-2-(2,4-dichlorophenoxy)phenol]
effect on bacterial growth at equal triclosan concentration ([1]; E. coli, 0.041 μg mL^1 triclosan (50 μg mL^−1 nanoparticles)): only began to impede the bacterial growth | MBC ([1]; Escherichia coli, read-out: minimal bactericidal concentration (MIC)): 0.1 µg/mL (≈ 0.345 µM) | effect on bacterial growth at equal triclosan concentration ([2]; S. aureus, 0.041 μg mL^1 triclosan (50 μg mL^−1 nanoparticles)): only began to impede the bacterial growth | MBC ([2]; Staphylococcus aureus, read-out: minimal bactericidal concentration (MIC)): 0.1 µg/mL (≈ 0.345 µM) | chemical stability (time) ([3]; at up to 200° C.): up to 2 h | solubility in aqueous solution ([3]; unless the pH is alkaline): fairly insoluble
